Measurements as given in US5618665A, “Enzymatic fluorometric assay for adenylate cyclase” (Regents of the University of Minnesota, priority 1994, dated 1997).

Columns and labels:
[1] = test system: glycogen phosphorylase a; test: Removal of AMP by the cleaning reactions (glycogen phosphorylase a activity, NADPH fluorescence); format: biochemical; details: 25° C.
Method: AMP was incubated for 60 min at 37° C. with 50 μl of either buffer (100 mM Tris-HCl, pH 8.0) or a cleaning reaction mixture containing 100 mM Tris-HCl, pH 8.0; 5 mM MgCl2. 2 mM CaCl2, 0.02 units/ml apyrase; 0.025 units/ml 5'-nucleotidase and 0.1 mg/ml adenosine deaminase.

[2] = test system: adenylate cyclase; test: Radioactive adenylate cyclase assay (modified Salomon, alpha-32P-ATP), rabbit ventricular membranes; format: biochemical, rabbit (New Zealand white); details: Iso 10^-6 M; GppNHp 10^-4 M; NaF 10^-2 M; n = 5
Method: (§1) Ventricular membrane preparations were prepared from five male New Zealand white rabbits (weight 2.4 kg; W.O.R.K., Philomith, Oreg.) sacrificed by cervical concussion and immediate incision of the heart as previously described. Briefly, hearts were placed in ice-cold SET buffer (0.25M sucrose, 0.1 mM EDTA, 5.0 mM Tris HCl, pH 7.4). Portions (1-2 g) from the ventricular apex were minced and then homogenized in ice-cold SET buffer (1/10, w/v). The homogenate was filtered through a Nitex filter (three layers) (Tetko, Los Angeles, Calif.) and then centrifuged for 20 min. at 1000×g. The pellet was resuspended and centrifuged three more times. The final pellet was resuspended in SET buffer (1.5 mg protein/ml) and stored at -70° C. until enzyme activity was measured.
A volume of 1.0 μl of either H2 O, NaF, guanylyl-5'-imidodiphosphate (GppNHp), isoproterenol, or isoproterenol+GppNHp were added to each of five reaction tubes and maintained at 0° C. […] Finally 25 μl of membrane suspension ([…]) were added to each tube and the reaction was initiated by placing the tubes in a water bath at 37° C. After 30 minutes, the reaction was terminated by the addition of 300 μl of a stopping solution which contained 0.34 HCl and ^3 H-cAMP, 10,000-20,000 cpm.
To generate the graph depicted in FIG. 2, 250 μl portions of reaction mixture A and membrane were used and 50 μl samples were removed from the 37° C. bath every 10 minutes, and stopped with 300 μl stopping solution. The assay tubes were heated at 95° C. for 5 minutes. ^32 P-cAMP was isolated using Dowex-alumina chromatography. Recovery, as assessed by ^3 H-cAMP, was 80-95%. All assays were conducted in triplicate. The time course of adenylate cyclase activity (n=5 different rabbit ventricular membrane preparations) is depicted in FIG. 1. Basal AC and agonist stimulated (0.1 mM GppNHp, 0.1 mM) AC are compared. The activity shown is (isoproterenol+GppNHp-stimulated AC activity) minus (GppNHp-stimulated activity). […]

[3] = test system: adenylate cyclase; test: Fluorometric (non-radioactive) adenylate cyclase assay, rabbit ventricular membranes; format: biochemical, rabbit (New Zealand white); details: NaF 10^-2 M; for Agonist-stimulated adenylate cyclase activity, fluorescent assay: Iso 10^-6 M, GppNHp 10^-4 M, n = 5; for stimulated activity, reduced assay volume: membrane suspension reduced from 25 μl to 5 μl, isoproterenol 10^-6 M
Method: as §1
A volume of 1.0 μl of either H2 O, NaF, guanylyl -5'-imidodiphosphate (GppNHp), isoproterenol, or isoproterenol+GppNHp was added to each of five reaction tubes and maintained at 0° C. Next, 25 μl of reaction mixture B (tris Acetate 100 mM, pH 7.4; KCl 20 mM; MgCl2 10.0 mM; phosphoenolpyruvate 20 mM; ATP 2.0 mM; GTP 0.02 mM; dithiothreitol 2.0 mM; bovine serum albumin 0.04%; theophylline 0.2 mM; pyruvate kinase 1.0 mg/ml) were added to each reaction tube. Finally, 25 μl of membrane suspension (40 to 45 μg protein) were added to each tube and the reaction was initiated by placing the tubes in a water bath at 37° C. After 30 minutes at 37° C., the reaction was stopped by the addition of 50 μl of 50 mM NaOH. The reaction mixture was heated for 5 minutes at 95° C.
1. A volume of 20-40 μl of reaction product from Part A was added to 100 μl of cleaning reaction mix (Tris-HCl 50 mM, pH 8.0; MgCl2 5 mM; CaCl2, 2 mM; 5'-nucleotidase 0.025 units/ml; apyrase 0.02 units/ml; adenosine deaminase 0.1 mg/ml). After 30 minutes at 37° C., the reaction was terminated by heating it at 95° C. for 5 minutes.
2. […] After 60 minutes at 37° C., 600 μl of 2-amino-2-methyl-1-propanol (AMP2) 50 mM, pH 9.9 was added to the reaction mix and the final concentration of NADPH was measured fluorometrically.
Although the basal activity is nearly 3 times higher in the nonradioactive method, the "fold" stimulation is similar for both receptor-mediated agonists (isoproterenol±GppNHp) as well by NaF, which directly stimulates adenylate cyclase.
The non-radioactive assay of Example 2 is at least 5 times more sensitive than the modified Salomon radioactive assay of Example 1. In Table 3, 5 μl of membrane preparation were used to measure adenylate cyclase activity in the non-radioactivity assay compared to 25 μl with the radioactive preparations. In a separate experiment, the volume of membrane suspension was reduced from 25 μl to 5 μl. By proportionally reducing the assay volume size, no difference in basal (58.4±3.9), isoproterenol (10^-6 M) (128±7.6) or NaF (10^-2 M) (331.9±42.8) stimulated activity was observed when results were compared to larger assay volumes present. EXAMPLE 5.

[4] = test system: adenylate cyclase; test: Adenylate cyclase activity of rabbit cardiac membranes by enzymatic fluorometric assay (ATP-ADP cycling), radioimmunoassay and Salomon's method; format: biochemical; details: isoproterenol 10^-7 and 10^-6 M; NaF 10^-2 M; GppNHp 10^-4 M; carbachol 10^-6 M; adenosine 10^-3 M; three methods
Method: Adenylate cyclase activities of six different rabbit cardiac membranes under basal and drug treated conditions were assessed using the fluorometric method of the present invention, radioimmunoassay and original [alpha-^32 P] ATP method developed by Salomon. The first part of the non-radioactive fluorescent technique for measuring adenylate cyclase activity is similar to the method described in Example 2 except that 3-isobutyl-1-methylxanthine (IBMX), rather than theophylline, was used to inhibit phosphodiesterase activity. Furthermore, a series of ATP-ADP enzyme-cycling reactions was used to amplify the cAMP signal, rather then the AMP stimulation of glycogen phosphorylase a utilized in previous examples. Use of the ATP-ADP enzymatic cycling amplification step can lengthen the assay duration, depending upon the desired assay sensitivity.
A volume of 1.0 μl of either H2 O, isoproterenol, NaF, guanylyl-5'-imidodiphosphate (GppNHp), carbachol, and adenosine was added to each of six reaction tubes on ice. Next, 25 μl of cyclase mix (100 mM Tris-acetate, pH 7.4; 4.2 mM KCl; 10 mM MgCl2; 20 mM phosphoenolpyruvate; 2 mM ATP; 20 μM GTP; 2 mM dithiothreitol; 0.04% bovine serum albumin; 0.2 mM 3-isobutyl-1-methylxanthine (IBMX); 100 μg/ml pyruvate kinase) was added to each reaction tube. The stored membrane was diluted with SET buffer in a concentration of 1.5 mg of protein/ml. Finally, 25 μl of membrane suspension, which contained 37.5 μg of protein, was added to each tube, and the reaction was initiated by placing the tubes in a water bath maintained at 37° C. After 30 minutes, the reaction was terminated by heating at 90° C. for 5 minutes. […] Then, 25 μl of cyclase mix and 25 μl of boiled membrane preparation were added to each tube. After 30 minutes, the reaction was terminated by heating at 90° C. for 5 minutes.
A volume of 5 μl of reaction of product from Part A was transferred to Pyrex® tubes. For external cAMP standard, a same volume of known amount of cAMP was also added to assay tubes. Newly synthesized cAMP was measured using the following enzymatic fluorometric assay.
1. A volume of 25 μl of "cleaning" reaction mix (100 mM Tris HCl, pH 8.0; 2 mM MgCl2; 2 units/ml apyrase; 2.5 units/ml 5'-nucleotidase; 50 μg/ml adenosine deaminase; 20 units/ml alkaline phosphatase) was added to each assay tube. The mixture was incubated at 37° C. for 30 minutes. Enzymes were then destroyed by heating for 10 minutes at 90° C.
2. A volume of 25 μl of a phosphodiesterase-containing reaction mix (100 mM Tris-HCl pH 8.0; 2 mM MgCl2; 0.01% bovine serum albumin; 60 μg/m; phosphodiesterase) was added to each assay tube from Step 1. After 60 minutes at 37° C., the assay tubes were heated at 90° C. for 5 minutes.
3. A volume of 25 μl of myokinase reaction mix (100 mM Tris-HCl, pH 8.0; 2 mM MgCl2; 225 mM KCl; 200 nM ATP; 8 mM phosphoenolpyruvate; 2 mM dithiothreitol; 0.01% bovine serum albumin; 24 μg/ml myokinase; 50 μg/ml pyruvate kinase) was added to the assay tubes from Step 2. The reactions were incubated at 37° C. for 2 hours.
4. […]
5. […] After 15 minutes at room temperature, the final concentration of NADPH was measured using a fluorometer (Optical Technology Devices, Inc., New York). The fluorometer was set such that a reading of 1 fluorometric unit was equivalent to 100 pmol of NADPH in 900 μl of buffer (50 mM Tris-HCl, pH 8.0). […]

[5] = test system: adenylate cyclase; test: Effect of theophylline on basal and isoproterenol-stimulated adenylate cyclase activity; format: biochemical; details: for Isoproterenol Stimulated adenylate cyclase activity / Fold Increase, isoproterenol stimulated: isoproterenol 10^-6 M; for Isoproterenol Stimulated adenylate cyclase activity / Basal (no isoproterenol) adenylate cyclase activity: n = 5; for Fold Increase, isoproterenol stimulated / Fold Increase, basal (no isoproterenol): vs control
Description: To investigate the effects of theophylline on basal adenylate cyclase activity, increasing concentrations of theophylline were studied (Table 2).

adenosine 2'- and 3'-monophosphate [AMP]
glycogen phosphorylase a activity ([1]; in the presence of the cleaning reaction mixture): remains similar to the control buffer values
glycogen phosphorylase a activity ([1]; without the cleaning step): markedly stimulated

[F-].[Na+] [NaF, Sodium Fluoride]
Agonist-stimulated adenylate cyclase activity, radioactive assay [2]: 106.2 ± 3.5 pmoles of cAMP/mg/min
Agonist-stimulated adenylate cyclase activity, fluorescent assay [3]: 346.7 ± 15.9 pmoles of cAMP/mg/min
stimulated activity, reduced assay volume [3]: 331.9±42.8
effect on cAMP production [4]: increased production

CC(C)NCC(O)c1ccc(O)c(O)c1 (centres unmarked) [isoproterenol]
Agonist-stimulated adenylate cyclase activity, radioactive assay [2]: 38.3 ± 2.3 pmoles of cAMP/mg/min
Agonist-stimulated adenylate cyclase activity, fluorescent assay [3]: 110.0 ± 3.3 pmoles of cAMP/mg/min
stimulated activity, reduced assay volume [3]: 128±7.6
"fold" stimulation (agonist-stimulated activity/basal activity) of adenylate cyclase activity ([5]; at a given concentration of isoproterenol, in the presence of theophylline): constant
Isoproterenol Stimulated adenylate cyclase activity ([5]; control (no theophylline)): 51.73 ± 10.47 pmol/mg/min
effect on cAMP production [4]: increased cAMP production, in a concentration-dependent manner

Nc1ncnc2c1ncn2[C@@H]1O[C@H](CO)[C@@H](O)[C@H]1O [adenosine]
effect on cAMP production [4]: inhibited

C[N+](C)(C)CCOC(N)=O [carbachol]
effect on cAMP production [4]: inhibited

Cn1c(=O)c2[nH]cnc2n(C)c1=O [theophylline]
Isoproterenol Stimulated adenylate cyclase activity ([5]; theophylline 10 μM): 85.58 ± 5.56 pmol/mg/min
Fold Increase, isoproterenol stimulated ([5]; theophylline 10 μM): 1.65 fold
Basal (no isoproterenol) adenylate cyclase activity ([5]; theophylline 10 μM): 44.72 ± 4.61 pmol/mg/min
Fold Increase, basal (no isoproterenol) ([5]; theophylline 10 μM): 1.46 fold
Isoproterenol Stimulated adenylate cyclase activity ([5]; theophylline 50 μM): 93.02 ± 3.55 pmol/mg/min
Fold Increase, isoproterenol stimulated ([5]; theophylline 50 μM): 1.80 fold
Basal (no isoproterenol) adenylate cyclase activity ([5]; theophylline 50 μM): 44.63 ± 5.93 pmol/mg/min
Fold Increase, basal (no isoproterenol) ([5]; theophylline 50 μM): 1.46 fold
Isoproterenol Stimulated adenylate cyclase activity ([5]; theophylline 100 μM): 104.21 ± 3.50 pmol/mg/min
Fold Increase, isoproterenol stimulated ([5]; theophylline 100 μM): 2.01 fold
Basal (no isoproterenol) adenylate cyclase activity ([5]; theophylline 100 μM): 59.94 ± 3.63 pmol/mg/min
Fold Increase, basal (no isoproterenol) ([5]; theophylline 100 μM): 1.91 fold
Isoproterenol Stimulated adenylate cyclase activity ([5]; theophylline 500 μM): 102.67 ± 2.86 pmol/mg/min
Fold Increase, isoproterenol stimulated ([5]; theophylline 500 μM): 1.98 fold
Basal (no isoproterenol) adenylate cyclase activity ([5]; theophylline 500 μM): 53.82 ± 4.37 pmol/mg/min
Fold Increase, basal (no isoproterenol) ([5]; theophylline 500 μM): 1.75 fold
basal activity is increased ([5]; theophylline 100-500 μM): approximately 100%
increase in basal activity ([5]; theophylline > 100 μM): no significant increase in basal activity was observed

Nc1nc2c(ncn2[C@@H]2O[C@H](COP(=O)(O)OP(=O)(O)NP(=O)(O)O)[C@@H](O)[C@H]2O)c(=O)[nH]1 [GppNHp, guanylyl-5'-imidodiphosphate]
Agonist-stimulated adenylate cyclase activity, radioactive assay [2]: 64.9 ± 3.3 pmoles of cAMP/mg/min
Agonist-stimulated adenylate cyclase activity, fluorescent assay [3]: 185.3 ± 13.7 pmoles of cAMP/mg/min
effect on cAMP production [4]: increased production
